In patent US4383113A, “Agricultural sulfonamides” (E. I. Du Pont de Nemours and Company, priority 1981, dated 1983):

What was measured:
Assay in all cases: Test A post-emergence
Set-up in all cases: key: 0 = no effect, 10 = maximum effect; letter = response symbol
morningglory = format: in vivo, Ipomoea spp.
How it was run: (§1)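 Seeds and tubers were treated preemergence in a growth medium with compound in a nonphytotoxic solvent, against untreated controls; emerged plants such as two-leaf barnyardgrass and five-leaf cotton were sprayed postemergence, against solvent-sprayed controls. After sixteen days in a greenhouse, response was rated visually from 0 to 10.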

cocklebur = format: in vivo, Xanthium spp.
How it was run: as §1

cassia = format: in vivo, Cassia tora
How it was run: as §1

nutsedge = format: in vivo, Cyperus rotundus
How it was run: as §1

crabgrass = format: in vivo, Digitaria spp.
How it was run: as §1

barnyardgrass = format: in vivo, Echinochloa crusgalli
How it was run: as §1

wild oats = format: in vivo, Avena fatua
How it was run: as §1

corn = format: in vivo
How it was run: as §1

rice = format: in vivo
How it was run: as §1

sorghum = format: in vivo
How it was run: as §1

soybean = format: in vivo
How it was run: as §1

wheat = format: in vivo
How it was run: as §1

cotton = format: in vivo
How it was run: as §1

bush bean = format: in vivo, bush beans; conditions: 0.4 kg/ha

Structure (SMILES)	response rating (morningglory; 0.4 kg/ha) [C]	response rating (cocklebur; 0.4 kg/ha) [C]	response rating (crabgrass; 0.4 kg/ha)	response rating (barnyardgrass; 0.4 kg/ha)	response rating (wild oats; 0.4 kg/ha)	response rating (cassia; 0.4 kg/ha) [C]	response rating (nutsedge; 0.4 kg/ha)	response rating (corn; 0.4 kg/ha)	response rating (rice; 0.4 kg/ha) [C]	response rating (sorghum; 0.4 kg/ha)	response rating (wheat; 0.4 kg/ha)	response rating (bush bean) [C]	response rating (soybean; 0.4 kg/ha) [C]	other results
CCCCOC(=O)c1ccccc1S(=O)(=O)NC(=O)Nc1nc(C)cc(OC)n1 [drawing 440]	9	9	3G	10C	8G									response rating (morningglory; 2 kg/ha): 10C; response rating (cocklebur; 2 kg/ha): 10C; response rating (cassia; 2 kg/ha): 9C; response rating (nutsedge; 2 kg/ha): 9C; response rating (barnyardgrass; 2 kg/ha): 10C; response rating (corn; 2 kg/ha): 9C; response rating (rice; 2 kg/ha): 8C; response rating (sorghum; 2 kg/ha): 9C; response rating (soybean; 2 kg/ha): 9C; response rating (wheat; 2 kg/ha): 8C
CCOC(=O)c1ccccc1S(=O)(=O)NC(=O)Nc1nc(OC)cc(OC)n1 [drawing 441]														response rating (morningglory; 2 kg/ha): 10C; response rating (cocklebur; 2 kg/ha): 9C; response rating (cassia; 2 kg/ha): 9C; response rating (nutsedge; 2 kg/ha): 9C; response rating (crabgrass; 2 kg/ha): 9C; response rating (barnyardgrass; 2 kg/ha): 10C; response rating (wild oats; 2 kg/ha): 9C; response rating (corn; 2 kg/ha): 9C; response rating (cotton; 2 kg/ha): 9C; response rating (rice; 2 kg/ha): 9C; response rating (sorghum; 2 kg/ha): 10C; response rating (wheat; 2 kg/ha): 9C
CCOC(=O)c1ccccc1S(=O)(=O)NC(=O)Nc1nc(OC)cc(OC)n1 [drawing 442]	10	9		10C	9C	9	9C	9C	9	9C	9C			response rating (cotton; 0.4 kg/ha): 9C
Cc1cc(C)nc(NC(=O)NS(=O)(=O)c2ccccc2C(=O)O)n1 [drawing 444]			2G											response rating (barnyardgrass; 10 kg/ha): 2G; response rating (rice; 10 kg/ha): 5G; response rating (sorghum; 10 kg/ha): 3G; response rating (soybean; 10 kg/ha): 1C
COc1cc(C)nc(NC(=O)NS(=O)(=O)c2ccccc2C(=O)OCCOCCOCCCl)n1 [drawing 448]	10	9		10C	9C	9			8		9C	9	8	response rating (cotton; 0.4 kg/ha): 9C
C=CCOC(=O)c1ccccc1S(=O)(=O)NC(=O)Nc1nc(C)nc(OC)n1 [drawing 451]	10	10		9C	9C	9		9C	9	9C	9C	9	9	
COC(=O)c1cc(Cl)c(Cl)cc1S(=O)(=O)NC(=O)Nc1nc(C)cc(OC)n1 [drawing 452]			2G	7H	0	2	6G	2G	2	5G	0			
COc1cc(C)nc(NC(=O)NS(=O)(=O)c2ccccc2C(=O)N(C)C)n1 [drawing 465]	10			10C	9C	9		9C	9	9C	9C		9	
COC(=O)c1ccccc1S(=O)(=O)NC(=O)Nc1nc(OC)cc(OC(C)C(=O)OC)n1 (centres unmarked) [drawing 468]	9		9C	9C	9C	9	9C	9C	9	9C	9C	9	9	
COCCCOc1cc(C)nc(NC(=O)NS(=O)(=O)c2ccccc2C(=O)OC)n1 [drawing 470]			9C	9C		9	9C	9C	8	9C		9	8	
COc1cc(C)nc(NC(=O)NS(=O)(=O)c2ccccc2C(=O)SC2CCCCC2)n1 [drawing 476]	10	9		9C	9C	9	10C		9	9C		9		response rating (cotton; 0.4 kg/ha): 9C
